Two molecules from patent US11793772B2, “Pharmaceutical composition comprising THA as active ingredient for treating breast cancer” (KOREA UNITED PHARM. INC., priority 2016, dated 2023) can be followed below.

For series [1], the system named is MDA-MD-453 cells. Briefly: Cell proliferation inhibitory activity per human breast cancer cell line, MDA-MD-453. Format: cell-based. To be noted: as treatment amount increased, FIG. 10B. The procedure: (§1) To measure cell proliferation, SKBR3, T47D, HCC1428, MDA-MD-453, MDA-MB-231, MDA-MB-468, HCC38, HCC70, and HCC1937 cells were plated in respective 96-well dishes (5×10^3 cells/well). For cell stabilization, these cells were incubated in a cell incubator at 36.5° C. for 24 hours, and then treated with a drug, and the number of live cells was measured using an IncuCyte ZOOM live cell analysis system (Essen Bioscience, Ann Arbor, Mich., USA) at intervals of 4 hours.

For series [2], the system named is T47D cells. Nature of the series: Cell proliferation inhibitory activity per human breast cancer cell line, T47D. To be noted: as treatment amount increased, FIG. 10A. Format: cell-based. The procedure: as §1
Series [3] concerns MDA-MB-231 cells. Briefly: Cell proliferation inhibitory activity per human breast cancer cell line, MDA-MB-231. Format: cell-based. To be noted: as treatment amount increased, FIG. 10B. The procedure:
as §1

Series [4] concerns SKBR3 cells. Nature of the series: Cell proliferation inhibitory activity per human breast cancer cell line, SKBR3. The note with it: as treatment amount increased, FIG. 10A. Format: cell-based. The procedure:
as §1

Series [5] concerns HCC1428 cells. Briefly: Cell proliferation inhibitory activity per human breast cancer cell line, HCC1428. Format: cell-based. To be noted: as treatment amount increased, FIG. 10A. How it is done: as §1
For series [6], the system named is HCC38 cells. Nature of the series: Cell proliferation inhibitory activity per human breast cancer cell line, HCC38. Format: cell-based. The note with it: as treatment amount increased, FIG. 10C. The procedure:
as §1

The subject of series [7] is HCC1937 cells. Briefly: Cell proliferation inhibitory activity per human breast cancer cell line, HCC1937. To be noted: as treatment amount increased, FIG. 10C. Format: cell-based. How it is done:
as §1

Series [8] relates to MDA-MB-468 cells. Nature of the series: Cell proliferation inhibitory activity per human breast cancer cell line, MDA-MB-468. Format: cell-based. The note with it: as treatment amount increased, FIG. 10B. The procedure: as §1
In series [9] the test system is HCC70 cells. Nature of the series: Cell proliferation inhibitory activity per human breast cancer cell line, HCC70. Format: cell-based. To be noted: as treatment amount increased, FIG. 10C. The procedure: as §1
Series [10] concerns TAMR-MCF-7 cells. Briefly: Real-time cell proliferation assay (IncuCyte ZOOM), TAMR-MCF-7. Format: cell-based, human. The note with it: TAMR-MCF-7 tamoxifen-resistant breast cancer cells; FIG. 2, FIG. 3. How it is done:
(§2) An MCF-7 cell line was sub-cultured in high glucose Dulbeccos Modified Eagle's Medium (DMEM) containing 10% fetal bovine serum, 50 U/ml of penicillin, and 50 μg/ml of streptomycin in an incubator supplied with 5% CO2 at 37° C. to be used for experiments. A TAMR-MCF-7 cell line was cultured in high glucose Dulbeccos Modified Eagle's Medium (DMEM) containing 10% charcoal-stripped fetal bovine serum, 3 μM 4-OH-tamoxifen (Sigma-Aldrich, Mo., USA), 50 U/ml of penicillin, and 50 μg/ml of streptomycin.
(§3) To measure cell proliferation, cells were plated in a 96-well dish (5×10^3 cells/well). After drug treatment, the number of live cells was measured using an IncuCyte ZOOM live cell analysis system (Essen Bioscience, Ann Arbor, Mich., USA) at intervals of 4 hours.
(§4) Tamoxifen-resistant breast cancer cells (TAMR-MCF-7) and/or control breast cancer cells (MCF-7) were treated with 2,4,6-trihydroxyacetophenone (THA), and then it was confirmed whether Plk1 activity and cell proliferation were inhibited, using the method of Example 1.

In series [11] the test system is Polo-like kinase 1 (Plk1). Briefly: Western blotting and immunocytochemistry of Plk1 downstream signals (cdc25c, cyclin B1) in tamoxifen-resistant breast cancer cells. Format: cell-based, human. How it is done:
Sodium dodecyl sulfate-polyacrylamide gel electrophoresis (SDS-PAGE) was performed using a gel electrophoresis apparatus (Mighty Small SE250, Hoefer Scientific Instruments, San Francisco). A cell lysate fraction was diluted in a sample dilution buffer [63 mM Tris (pH 6.8), 10% glycerol, 2% SDS, 0.0013% bromophenol blue, and 5% β-mercaptoethanol], and then electrophoresis was performed thereon in an electrode buffer (15 g of Tris, 72 g of […], and 5 g of SDS included in a 1 L solution) using a 8% to 12% gel. The electrophoresed gel was used to transfer proteins to a nitrocellulose membrane at 190 mAmps for 70 minutes in a transfer buffer (25 mM Tris, 192 mM […], and 20% v/v methanol (pH 8.3)) using a transfer electrophoresis apparatus. The nitrocellulose membrane was reacted with a primary antibody, and then reacted with horseradish peroxidase-conjugated goat anti-rabbit IgG and horseradish peroxidase-conjugated goat anti-mouse IgG as secondary antibodies for 6 hours, followed by color development using an ECL detection system (ECL chemiluminescence system, Amersham, Gaithersberg, Mass.).
To measure fluorescence expression, cells were plated in a 6-well dish (5×10^5 cells/well). Fluorescence was conjugated to cdc25c and cyclin B1 antibodies using SiteClick™ Qdot antibody labeling kits (Thermo Scientific, IL, USA), and fluorescence-conjugated cdc25c and cyclin B1 antibodies were treated in a 6-well dish, and then expression was observed through a fluorescence microscope.
as §4
On the technique in general: Immunoblotting shows a protein as a band on a membrane.

The test system of series [12] is TAMR-MCF-7 cells. Nature of the series: Tamoxifen-resistant breast cancer cell xenograft mouse model. Format: in vivo, BALB/c-nu mice. The procedure:
In all experiments, 6-week-old female BALB/c-nu mice were raised for 1 week at the Research Center for Animal Experiments in the College of Pharmacy of the Seoul National University at a humidity of 55±5% and a temperature of 22±2° C. and under controlled ventilation conditions and adapted to the environment, and then used in the experiments according to randomized block design, and light/dark cycles were adjusted to 12 hours.
Animal experiments were carried out in accordance with the Experimental Animals Ethics Guidelines. TAMR-MCF-7 cells (5×10^6 cells) were transdermally injected into the left mammary gland of nude mice, and tumor sizes were measured using a caliper twice a week. Tumor volume was calculated by the following formula: Tumor volume=length×width^2. Five weeks after cell transplantation, the mice were euthanized using carbon dioxide gas and the tumors were extracted and weighed.
THA was intraperitoneally administered to a tamoxifen-resistant breast cancer cell-transplanted mouse model every day for 2 weeks at a dose of 6 mg/kg based on a dose known to be effective for bile secretion in the liver. Tumor sizes and weights were measured twice a week during the administration period, and after administration was completed, tumors were extracted, and then the extracted tumor tissues were weighed. PCNA, which is a cell proliferative index, and TUNEL, which is an apoptotic index, were evaluated in the tumor tissues by immunohistochemistry staining, and some tissues were pulverized to quantify cdc25c, which is a downstream signal of Plk1, as a Plk1 activity index, and an increase or decrease in cdc25c expression was confirmed by western blotting.
In addition, THA was administered to a tamoxifen-resistant breast cancer cell-transplanted mouse model at a dose of 10 mg/kg, 30 mg/kg, or 100 mg/kg using an oral zonde needle every day for 2 weeks.

Series [13] concerns TAMR-MCF-7 cells. Briefly: Real-time apoptosis analysis with caspase-3/7 fluorescent substrate. Format: cell-based, human. The note with it: caspase-3/7 selective fluorescent substrate, FIG. 6. The procedure:
To measure apoptosis, cells were plated in a 96-well dish (5×10^3 cells/well). The cells were pre-treated with the IncuCyte ZOOM™ 96-well Caspase-3/7 apoptosis assay reagent for 3 hours and treated with a drug, and then the degree of fluorescence expression was measured using an IncuCyte ZOOM™ live cell analysis system (Essen Bioscience, Ann Arbor, Mich., USA) at intervals of 4 hours.

The subject of series [14] is human breast cancer cell line panel. Briefly: THA reactivity according to Plk1 expression differences per human breast cancer cell line. Format: cell-based. To be noted: 11 breast cancer cell lines classified as low, medium, high Plk1 expression; FIGS. 11A and 11B.
The subject of series [15] is TAMR-MCF-7 cells. Nature of the series: Cell cycle analysis by flow cytometry. Format: cell-based, human. The note with it: FIG. 4, FIG. 5. The procedure: To measure the cell cycle distribution, cells were plated in a 100 mm dish (5×10^5 cells/well). The cells were fixed with PBS at 4° C., refrigerated in 70% EtOH at 4° C., and cultured for 24 hours. After removing the 70% EtOH, the cells were stained with propidium iodide (PI)/Triton X-100/DNAse-free RNAse A at 37° C. for 15 minutes. 20,000 cells per experimental group were analyzed using an FACS-Calibur™ (BD Biosciences, CA, USA) machine.
Background: Flow cytometry measures light scatter and fluorescence of single cells or particles in a stream.

Series [16] relates to MCF-7 cells. Briefly: Real-time cell proliferation assay (IncuCyte ZOOM), MCF-7. Format: cell-based, human. To be noted: MCF-7 normal (control) breast cancer cells; FIG. 2. How it is done:
as §2, §3, §4

[17] abbreviates: tamoxifen-resistant breast cancer cells, western blotting and immunocytochemistry, FIG. 1.
[18] abbreviates: intraperitoneal 6 mg/kg, immunohistochemistry, FIGS. 7D and 7E.

In the case of `CC[C@@H]1C(=O)N(C)c2cnc(Nc3ccc(C(=O)NC4CCN(C)CC4)cc3OC)nc2N1C1CCCC1` [BI-2536, reference compound], the cell proliferation result in [1], in [2], in series [3], in series [4], in [5] and in [6] was “cell proliferation was inhibited” throughout. The cell proliferation entry in series [7], in [8] and in series [9] was “cell proliferation was inhibited” throughout.
On to `CC(=O)c1c(O)cc(O)cc1O` [THA, 2,4,6-trihydroxyacetophenone], for which the “inhibition of cell proliferation” value is “more strongly inhibited cell proliferation” in [10] and “inhibited cell proliferation” in [16]. Further, the cell proliferation result in [1], in [2], in [3], in series [4], in series [5] and in [6] was “cell proliferation was inhibited” in each case. For the same molecule, the cell proliferation result in series [7], in [8] and in [9] was “cell proliferation was inhibited” throughout. Moreover, the Plk1 inhibitory effect result in series [11] (concluded from cdc25c decrease and cyclin B1 increase) is on record as “had a Plk1 inhibitory effect”. The “compensatory cyclin B1 expression” value in series [11] (setting [17]) is “increased compensatory cyclin B1 expression”. In addition, in series [11] (setting [17]), the “expression of cdc25c, downstream signal of Plk1” value is given as “reduced the expression of cdc25c”. The tumor size result is listed as “significantly reduced” in series [12] (intraperitoneal 6 mg/kg every day for 2 weeks, compared to control, FIG. 7A) and “significantly reduced” in series [12] (oral 10 mg/kg, 30 mg/kg, or 100 mg/kg every day for 2 weeks, compared to control, FIG. 7G). Further, in [12] (intraperitoneal 6 mg/kg every day for 2 weeks, compared to control, FIG. 7C), the tumor weight result is given as “significantly reduced”. The “body weight of each mouse” value in series [12] (intraperitoneal 6 mg/kg every day for 2 weeks, FIG. 7B) is recorded as “maintained at a similar level”; in series [12] (oral 10 mg/kg, 30 mg/kg, or 100 mg/kg every day for 2 weeks, FIG. 7I), “maintained at a similar level”. Further, in series [12] (setting [18]), the “PCNA, cell proliferative index, in tumor tissue” value was “reduced”. The “TUNEL, apoptotic index, in tumor tissue” value in series [12] (setting [18]) is recorded as “significantly increased”. In [12] (intraperitoneal 6 mg/kg, western blotting, FIG. 7F), the “cdc25c expression in tumor tissue (Plk1 activity index)” value is on record as “significantly inhibited”. Also, in series [13], the apoptotic index result was “significantly increased”. Further, in [14], the “selectivity according to Plk1 expression (correlation between Plk1 expression and IC50 of each cell line)” value is given as “selectively acts on breast cancer cells with high Plk1 expression”. Moreover, the cell cycle inhibition entry in series [15] is reported as “S phase arrest”.
